The text below walks through data of patent US20230416238A1, “N-[(1,3-BENZOXAZOL-2-YL)-HETEROCYCLE]AMIDE DERIVATIVES FOR THE TREATMENT AND PROPHYLAXIS OF HEPATITIS B VIRUS INFECTION” (Hoffmann-La Roche Inc., priority 2020, published 2023).

Some results are limits rather than exact numbers.

Holding throughout (type): cell-based
Data set [1] deals with HBeAg. As to the kind of experiment: PHH HBV natural infection assay, HBeAg (alphalisa). Particulars: Hepatitis B virus, Hepatocyte, read-out: HBeAg IC50. As to the method: (§1) Detailed procedures regarding primary human hepatocyte (PHH) HBV natural infection assay are described as below. One tube of frozen PHH (10 million cells) is thawed in 37° C. water bath and then transferred to 20 mL of PHH thawing medium (Sigma, InVitroGRO HT Medium, Cat. S03319) with gently mixing. The cells were then centrifuged at […] for 5 min, the supernatant was discarded and the tube was refilled with 25 mL of PHH plating medium (Sigma, InVitroGRO CP Medium, Cat. S03317). The tube was shaken very gently to re-suspend all cells, and then 50 μL of cells were transferred to each well 384-well collagen I coated plate with appropriate liquid handling equipment, e.g. Integra VIAFLO384 or Agilent Bravo. The cells were then cultured for 24 hours in a cell incubator. For HBV infection, after PHH attachment on the culture plate, the plating medium was removed and replenished with PHH culture medium containing HBV virus. The PHH culture medium was prepared with Dulbecco's Modified Eagle Medium (DMEM)/F12 (1:1 in volume ratio) containing 10% fetal bovine serum (Gibco, Cat. 10099141), 5 ng/mL human epidermal growth factor (Gibco, Cat. PHG0311L), 20 ng/mL dexamethasone (Sigma, Cat. D4902-100 mg), 250 ng/mL human recombinant insulin (Gibco, Cat. 41400045) and 100 U/mL penicillin. HBV virus at 200 genome equivalent (GE) per cell with 4% PEG8000 (Sigma, Cat. P1458) containing culture medium were added to the PHH culture medium for infection. The cells were then cultured for 24 hours in cell incubator. Then the cell culture supernatant was removed. The HBV-infected PHH were cultured with sandwich culture method with MEI culture medium containing 1% DMSO and 0.25 mg/mL matrix gel for 72 hours. The supernatant was then refreshed with PHH culture medium containing different concentrations of testing compounds for two times with 72-hour interval. At the end of treatment, the supernatant was collected for viral markers measurements, including HBsAg, HBeAg, HBV DNA and cytotoxicity. HBsAg and HBeAg were detected using alphalisa method using their specific antibodies. For HBV DNA detection, HBV DNA Quantitative Fluorescence Diagnostic Kit (Sansure Biotech Inc.) was used following the manufacture's protocol. Cytotoxicity was determined using Cell Counting Kit-8 (CCK8, Dojindo Molecular Technologies, Inc.).
(§2) The compounds of the present invention were tested for their capacity to inhibit HBsAg and HBeAg as described herein.

Data set [2] can be described thus: Cytotoxicity in PHH natural infection assay (Cell Counting Kit-8). The conditions noted are these: HBV-infected primary human hepatocytes, CCK8. As to the method:
as §1
(Tetrazolium assays rely on reduction of a dye to a coloured formazan, in cell work by metabolically active cells.)

For data set [3], the system named is HBsAg. The experiment in a line: PHH HBV natural infection assay, HBsAg (alphalisa). Particulars: Hepatitis B virus, Hepatocyte, read-out: HBsAg IC50. As to the method:
as §1, §2

As usually defined, the IC50 is the point on the concentration scale where inhibition reaches its midpoint. One may read the CC50 as the concentration at which the toxic effect on the cells reaches its halfway point. Lower therefore signals greater toxicity to the cells. With `CCNC(=O)NC1CC2(C1)CN(c1nc3cc(Cl)ccc3o1)C2` [Example 24, 1-[2-(5-Chloro-1,3-benzoxazol-2-yl)-2-azaspiro[3.3]heptan-6-yl]-3-ethyl-urea], the half-maximal inhibitory concentration (IC50) was found to be 8.31 µM in data set [1] and 7.29 µM in data set [3]. In data set [2], this compound registered a CC50 at 144 h of more than 100 µM.
With `O=C(CCC(F)(F)F)NC1CC2(C1)CN(c1nc3cc(Cl)ccc3o1)C2` [Example 25, N-[2-(5-chloro-1,3-benzoxazol-2-yl)-2-azaspiro[3.3]heptan-6-yl]-4,4,4-trifluoro-butanamide], the IC50 was 10.3 µM in data set [1] and 9.8 µM in data set [3]. Besides, in data set [2], the CC50 at 144 h was more than 100 µM.
With `O=C(NC1CC2(C1)CN(c1nc3cc(Cl)ccc3o1)C2)C1CCS(=O)(=O)C1` (stereo not drawn) [Example 26, N-[2-(5-chloro-1,3-benzoxazol-2-yl)-2-azaspiro[3.3]heptan-6-yl]-1,1-dioxo-thiolane-3-carboxamide], the IC50 is 4.65 µM in data set [1] and 8.76 µM in data set [3]. Besides, in data set [2], the CC50 at 144 h is more than 100 µM.
On to `CC(C)(C)C(=O)NC1CC2(C1)CN(c1nc3cc(Cl)ccc3o1)C2` [Example 27, N-[2-(5-chloro-1,3-benzoxazol-2-yl)-2-azaspiro[3.3]heptan-6-yl]-2,2-dimethyl-propanamide], for which the half-inhibitory concentration (IC50) in data set [1] came to 3.69 µM; in data set [3], 5.67 µM. In data set [2], this compound had a half-maximal cytotoxic concentration (CC50) at 144 h of more than 100 µM.
`CC(C)CC(=O)NC1CC2(C1)CN(c1nc3cc(Cl)ccc3o1)C2` [Example 28, N-[2-(5-chloro-1,3-benzoxazol-2-yl)-2-azaspiro[3.3]heptan-6-yl]-3-methyl-butanamide]: the IC50 was determined as 2.18 µM in data set [1] and 3.31 µM in data set [3]. The compound also registered a CC50 at 144 h in data set [2] of 76.6 µM.
Regarding `CC(C)(O)C(=O)NC1CC2(C1)CN(c1nc3cc(Cl)ccc3o1)C2` [Example 29, N-[2-(5-chloro-1,3-benzoxazol-2-yl)-2-azaspiro[3.3]heptan-6-yl]-2-hydroxy-2-methyl-propanamide], the 50% inhibitory concentration (IC50) in data set [1] turned out to be 7.37 µM; in data set [3], 7.13 µM. This compound also yielded a CC50 at 144 h in data set [2] of more than 100 µM.
Consider `O=C(NC1CC2(C1)CN(c1nc3cc(Cl)ccc3o1)C2)C1CC1(F)F` (stereo not drawn) [Example 30, N-[2-(5-chloro-1,3-benzoxazol-2-yl)-2-azaspiro[3.3]heptan-6-yl]-2,2-difluoro-cyclopropanecarboxamide], for which the values for the IC50 in data set [1] and in data set [3] were 2.7 µM and 3.5 µM, respectively. The CC50 at 144 h in data set [2] is more than 100 µM.
Turning to `O=C(NC1CC2(C1)CN(c1nc3cc(Cl)ccc3o1)C2)C1CC(F)(F)C1` [Example 31, N-[2-(5-chloro-1,3-benzoxazol-2-yl)-2-azaspiro[3.3]heptan-6-yl]-3,3-difluoro-cyclobutanecarboxamide], the IC50 in data set [1] worked out at 6.22 µM; in data set [3] it was 6.98 µM. Further, in data set [2], the CC50 at 144 h was more than 100 µM.
As for `O=C(NC1CC2(C1)CN(c1nc3cc(Cl)ccc3o1)C2)C1CCC(F)(F)C1` (stereo not drawn) [Example 32, N-[2-(5-chloro-1,3-benzoxazol-2-yl)-2-azaspiro[3.3]heptan-6-yl]-3,3-difluoro-cyclopentanecarboxamide], the IC50 in data set [1] was 10.3 µM; in data set [3] it was 4.25 µM. In addition, the CC50 at 144 h in data set [2] was more than 100 µM.
With `CC1(C(=O)NC2CC3(C2)CN(c2nc4cc(Cl)ccc4o2)C3)CCS(=O)(=O)C1` (stereo not drawn) [Example 33, N-[2-(5-chloro-1,3-benzoxazol-2-yl)-2-azaspiro[3.3]heptan-6-yl]-3-methyl-1,1-dioxo-thiolane-3-carboxamide], the values for the concentration for half-maximal inhibition (IC50) in data set [1] and in data set [3] were 4.4 µM and 4.51 µM, respectively. Besides, the cytotoxic concentration (CC50) at 144 h in data set [2] was more than 100 µM.
On to `O=C(NC1CC2(C1)CN(c1nc3cc(Cl)ccc3o1)C2)C1CS(=O)(=O)C1` [Example 34, N-[2-(5-chloro-1,3-benzoxazol-2-yl)-2-azaspiro[3.3]heptan-6-yl]-1,1-dioxo-thietane-3-carboxamide], for which the half-maximal inhibitory concentration (IC50) in data set [1] was found to be 4.48 µM; in data set [3] it was 5.5 µM. Also, the CC50 at 144 h in data set [2] was more than 100 µM.
The corresponding values for `O=C(CC1CS(=O)(=O)C1)NC1CC2(C1)CN(c1nc3cc(Cl)ccc3o1)C2` (stereo not drawn) [Example 35, N-[2-(5-chloro-1,3-benzoxazol-2-yl)-2-azaspiro[3.3]heptan-6-yl]-2-(1,1-dioxothietan-3-yl)acetamide] are 2.22 µM, 2.36 µM and more than 100 µM.
Consider `O=C(NC1CC2(C1)CN(c1nc3cc(Cl)ccc3o1)C2)C1CCS(=O)(=O)CC1` [Example 36, N-[2-(5-chloro-1,3-benzoxazol-2-yl)-2-azaspiro[3.3]heptan-6-yl]-1,1-dioxo-thiane-4-carboxamide], for which the concentration for half-maximal inhibition (IC50) in data set [1] turned out to be 4.03 µM; in data set [3], 8.28 µM. This compound gave a CC50 at 144 h in data set [2] of more than 100 µM.
In the case of `O=C(NC1CC2(C1)CN(c1nc3ccc(Cl)cc3o1)C2)c1ccnc(S(=O)(=O)C2CC2)c1` [Example 37, N-[2-(6-chloro-1,3-benzoxazol-2-yl)-2-azaspiro[3.3]heptan-6-yl]-2-cyclopropylsulfonyl-pyridine-4-carboxamide], the concentration for half-maximal inhibition (IC50) in data set [1] stood at 6.26 µM; in data set [3] it was 7.75 µM. The CC50 at 144 h in data set [2] was more than 10 µM.
In the case of `COc1cc(C(=O)NC2CC3(C2)CN(c2nc4ccc(Cl)cc4o2)C3)ccn1` [Example 38, N-[2-(6-chloro-1,3-benzoxazol-2-yl)-2-azaspiro[3.3]heptan-6-yl]-2-methoxy-pyridine-4-carboxamide], the half-maximal inhibitory concentration (IC50) in data set [1] was found to be 5.73 µM; in data set [3] it was 6.89 µM. The CC50 at 144 h in data set [2] is more than 10 µM.
The corresponding values for `COCCOc1cc(C(=O)NC2CC3(C2)CN(c2nc4cc(Cl)ccc4o2)C3)ccn1` [Example 39, N-[2-(5-chloro-1,3-benzoxazol-2-yl)-2-azaspiro[3.3]heptan-6-yl]-2-(2-methoxyethoxy)pyridine-4-carboxamide] are 4.37 µM, 6.47 µM and more than 100 µM.
Regarding `CS(=N)(=O)c1ccc(C(=O)NC2CC3(C2)CN(c2nc4cc(Cl)ccc4o2)C3)o1` (stereo not drawn) [Example 40, N-[2-(5-chloro-1,3-benzoxazol-2-yl)-2-azaspiro[3.3]heptan-6-yl]-5-(methylsulfonimidoyl)furan-2-carboxamide], the concentration for half-maximal inhibition (IC50) in data set [1] came to 4.78 µM; in data set [3], 6.13 µM. For the same compound, in data set [2], the CC50 at 144 h was more than 100 µM.
On to `CC(C)Oc1cc(C(=O)NC2CC3(C2)CN(c2nc4ccc(Cl)cc4o2)C3)ccn1` [Example 41, N-[2-(6-chloro-1,3-benzoxazol-2-yl)-2-azaspiro[3.3]heptan-6-yl]-2-isopropoxy-pyridine-4-carboxamide], for which the concentration for half-maximal inhibition (IC50) amounted to 3.81 µM in data set [1] and 5.87 µM in data set [3]. The same compound gave a 50% cytotoxic concentration (CC50) at 144 h in data set [2] of more than 10 µM.
On to `O=C(NC1CC2(C1)CN(c1nc3cc(Cl)ccc3o1)C2)c1ccc(C(F)(F)F)o1` [Example 42, N-[2-(5-chloro-1,3-benzoxazol-2-yl)-2-azaspiro[3.3]heptan-6-yl]-5-(trifluoromethyl)furan-2-carboxamide], for which the IC50 in data set [1] was 4.67 µM; in data set [3] it was 5.66 µM. The CC50 at 144 h in data set [2] is more than 100 µM.
With `COc1cc(C(=O)NC2CC3(C2)CN(c2nc4cc(Cl)ccc4o2)C3)ccn1` [Example 43, N-[2-(5-chloro-1,3-benzoxazol-2-yl)-2-azaspiro[3.3]heptan-6-yl]-2-methoxy-pyridine-4-carboxamide], the values for the IC50 in data set [1] and in data set [3] were 1.01 µM and 1.76 µM, respectively. The same compound returned a CC50 at 144 h in data set [2] of 84.8 µM.
